As a reminder, the melting point is the temperature of the solid-liquid transition.

Regarding `O=C(NCCc1ccc(C(F)(F)F)cc1F)c1ncccc1C(F)(F)F` [A.001, 3-Trifluoromethyl-pyridine-2-carboxylic acid [2-(2-fluoro-4-trifluoromethyl-phenyl)-ethyl]-amide], the melting point is 95 °C. Take `O=C(NCCc1ccc(Cl)cc1F)c1ncccc1C(F)(F)F` [A.002, 3-Trifluoromethyl-pyridine-2-carboxylic acid [2-(4-chloro-2-fluoro-phenyl)-ethyl]-amide]: the melting point worked out at 69 °C.

`O=C(NCCc1ccc(F)cc1F)c1ncccc1C(F)(F)F` [A.005] showed a melting point of 78 °C. As to `Cc1cccnc1C(=O)NCC(F)(F)c1ccc(Cl)cc1Cl` [A.009, N-[2-(2,4-dichlorophenyl)-2,2-difluoro-ethyl]-3-methyl-pyridine-2-carboxamide], the melting point fell in the range of 117 to 118 °C.

For the origin of these results see US10952435B2, “Pyridine-2-carboxamides as nematocides” (SYNGENTA PARTICIPATIONS AG, priority 2013, dated 2021).
